US7223751B2, “Sulfonamide derivatives, intermediate thereof, its preparation methods, and pharmaceutical composition comprising the same” (Kolon Ind. Inc., priority 2001, dated 2007)

Key:
MMP-1 = target: T1, MMP-1 (Homo sapiens, UniProt P03956); test: MMP inhibiting activity, fluorescence assay; assay type: biochemical; conditions: read-out: Enzyme inhibiting constant IC50 MMP-1
T1 sequence (P03956 100-469): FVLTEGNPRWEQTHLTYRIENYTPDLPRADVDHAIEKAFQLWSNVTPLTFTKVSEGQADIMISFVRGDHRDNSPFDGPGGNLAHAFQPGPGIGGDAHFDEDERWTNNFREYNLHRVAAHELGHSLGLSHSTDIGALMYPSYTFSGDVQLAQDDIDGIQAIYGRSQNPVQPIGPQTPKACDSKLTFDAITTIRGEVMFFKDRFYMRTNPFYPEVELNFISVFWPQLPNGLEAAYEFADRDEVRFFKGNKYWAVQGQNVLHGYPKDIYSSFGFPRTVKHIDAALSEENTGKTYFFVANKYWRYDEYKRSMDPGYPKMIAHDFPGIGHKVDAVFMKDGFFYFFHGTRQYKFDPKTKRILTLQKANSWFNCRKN
Experimental: (§1) Inhibitory activities of all the enzymes were measured similarly to the MMP-2 activity measuring method shown below. Prior to measuring, proMMP-2 was treated with 1 mM p-aminophenyl mercuricacetate at 37° C. for 45 minutes to activate it. The ProMMP-9 was activated to an enzyme with MMP-3, and stored at −80° C. until used.
(§2) MMP activities were measured by fluorescence assay by changing a microtiter plate formate according to the reported method (Knight, C. G., Willenbrock, F., Murphy, G. A., FEBS Lett. 1992, 296, 263-266). On a dynatech MicroFLUOR plate, a buffer solution comprising 50 Mm Tris-HCl pH 7.5, 10 mM CaCl2, 0.15 M NaCl, 0.05% Brij, and 1-8 μM of a substrate (Mca-Pro-Leu-Gly-Leu-Dpa-Ala-Arg-NH2), and various concentrations of inhibitors were introduced, and it was reacted with activated enzymes at 37° C. for 20-30 minutes. Reaction was terminated by putting the reactant in 50 mM EDTA, and then fluorescence was measured with a spectrofluorometer attached to a microplate reader (λex 328 nm, λ em 393 nm). The inhibiting activity degree was indicated by an IC50 value, which is a concentration inhibiting activity by 50% compared to the control.

MMP-13 = MMP-13 (Homo sapiens, UniProt P45452); test: MMP inhibiting activity, fluorescence assay; assay type: biochemical; conditions: read-out: Enzyme inhibiting constant IC50 MMP-13
Experimental: as §1, §2

MMP-2 = target: T2, MMP-2 (Homo sapiens, UniProt P08253); test: MMP inhibiting activity, fluorescence assay; assay type: biochemical; conditions: read-out: Enzyme inhibiting constant IC50 MMP-2
T2 sequence (P08253 110-660): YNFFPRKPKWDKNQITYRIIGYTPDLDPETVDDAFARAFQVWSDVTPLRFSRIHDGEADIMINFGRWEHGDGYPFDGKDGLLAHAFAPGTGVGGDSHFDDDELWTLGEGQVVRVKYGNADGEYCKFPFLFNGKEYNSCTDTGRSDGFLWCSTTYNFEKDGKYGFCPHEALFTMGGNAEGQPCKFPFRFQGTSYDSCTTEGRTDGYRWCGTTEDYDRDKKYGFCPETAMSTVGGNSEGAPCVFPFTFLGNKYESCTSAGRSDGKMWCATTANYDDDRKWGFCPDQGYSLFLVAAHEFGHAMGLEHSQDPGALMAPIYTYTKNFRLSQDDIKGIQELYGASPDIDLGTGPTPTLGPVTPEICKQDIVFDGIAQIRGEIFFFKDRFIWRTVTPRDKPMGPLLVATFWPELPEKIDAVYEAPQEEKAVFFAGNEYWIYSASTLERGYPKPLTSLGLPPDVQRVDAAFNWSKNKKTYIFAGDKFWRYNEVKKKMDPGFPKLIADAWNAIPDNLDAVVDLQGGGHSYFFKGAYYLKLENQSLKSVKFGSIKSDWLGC
Experimental: as §1, §2

[1] = tested on: HUVEC (human umbilical vein endothelial cell) cells; test: Tube formation activity on matrigel; assay type: cell-based; set-up: key: −: control; ±: tube almost resembles control; +: inhibition; ++: significant inhibition; +++: complete inhibition; conditions: 16-24 hours
Experimental: In a culture flask previously coated with gelatin, HUVEC (human umbilical vein endothelial cell) cells cultured with a M199 medium (containing 20% FBS, 3 ng/ml bFGF, 100 μg/ml heparin) were treated with trypsin/EDTA, and then number of cells are counted so that number of cells may be 2×10^4 cells/well in a 96-well plate previously coated with matrigel. Samples were then added and cultured in a CO2 culture medium at 37° C. for 16-24 hours.

IC50 (MMP-1) [nM] | IC50 (MMP-13) [nM] | IC50 (MMP-2) [nM] | Molecule | Tube Formation ([1]; concentration 5 μM) | Tube Formation ([1]; concentration 50 μM) | Tube Formation ([1]; concentration 100 μM) | Tube Formation ([1]; concentration 0.5 μM)
 |  |  | 1-(4-Methoxy-benzenesulfonyl)-5-oxo-4-prop-2-ynyl-piperazine-2-hydroxamate [Example 23] | + | ++ | +++ | 
 |  |  | 1-Cyclopropyl-5-hydroxymethyl-4-(4-methoxy-benzenesulfonyl)-5-oxo-piperazin-2-one [Example 27] | ++ | ++ |  | 
 |  |  | 4-Allyl-1-(4-methoxy-benzenesulfonyl)-5-oxo-piperazine-2-hydroxamate [Example 21] | ± | + |  | 
 |  |  | 4-Cyclopropyl-1-(4-methoxy-benzenesulfonyl)-5-oxo-piperazine-2-hydroxamate [Example 17] | + | + | ++ | 
 |  |  | COc1ccc(S(=O)(=O)N2CC(=O)N(CCN3CCCCC3)CC2C(=O)NO)cc1.Cl (centres unmarked) [Example 9, 1-(4-Methoxy-benzenesulfonyl)-5-oxo-4-(2-piperidin-1-yl-ethyl)-piperazine-2-hydroxamate hydrochloride] | − | ± |  | 
 |  |  | COc1ccc(S(=O)(=O)N2CC(=O)N(CCN3CCOCC3)CC2C(=O)NO)cc1.Cl (centres unmarked) [Example 11, 1-(4-Methoxy-benzenesulfonyl)-4-(2-morpholin-4-yl-ethyl)-5-oxo-piperazine-2-hydroxamate hydrochloride] | ± | + |  | 
 |  |  | COc1ccc(S(=O)(=O)N2CC(=O)N(Cc3ccccn3)CC2C(=O)NO)cc1.Cl (centres unmarked) [Example 13, 1-(4-Methoxy-benzenesulfonyl)-5-oxo-4-pyridin-2-yl-methyl-piperazine-2-hydroxamate hydrochloride] | ± | + | + | 
> 10000 | > 10000 | > 10000 | COc1ccc(S(=O)(=O)N2CC(=O)N(CCc3ccccn3)CC2C(=O)NO)cc1 (centres unmarked) [Example 15] | + | + | ++ | 
 |  |  | CCCCN1CC(C(=O)O)N(S(=O)(=O)c2ccc(OC)cc2)CC1=O (centres unmarked) [Example 26, 4-Butyl-1-(4-methoxy-benzenesulfonyl)-5-oxo-piperazine-2-carboxylic acid] | ± | + | ++ | 
2430 | 2100 | 80 | CCCCCCCCN1CC(C(=O)O)N(S(=O)(=O)c2ccc(-c3ccc(Br)cc3)cc2)CC1=O (centres unmarked) [Example 33, 1-(4′-Bromo-biphenyl-4-sulfonyl)-4-octyl-5-oxo-piperazine-2-carboxylic acid] | + | ++ | +++ | 
 |  |  | C#CCN1CC(C(=O)O)N(S(=O)(=O)c2ccc(-c3ccc(Br)cc3)cc2)CC1=O (centres unmarked) [Example 35, 1-(4′-Bromo-biphenyl-4-sulfonyl)-5-oxo-4-prop-2-ynyl-piperazine-2-carboxylic acid] | ++ | +++ |  | ++
 |  |  | O=C(O)C1CN(Cc2ccccc2)C(=O)CN1S(=O)(=O)c1ccc(-c2ccc(Br)cc2)cc1 (centres unmarked) [Example 37, 4-Benzyl-1-(4′-bromo-biphenyl-4-sulfonyl)-5-oxo-piperazine-2-carboxylic acid] | ++ | +++ |  | ++
8270 | 2350 | 567 | CCCCCCCCCCCCN1CC(C(=O)O)N(S(=O)(=O)c2ccc(-c3ccc(Br)cc3)cc2)CC1=O (centres unmarked) [Example 39, 1-(4′-Bromo-biphenyl-4-sulfonyl)-4-dodecyl-5-oxo-piperazine-2-carboxylic acid] | − | + |  | −
 |  |  | CCCCOCCCN1CC(C(=O)O)N(S(=O)(=O)c2ccc(-c3ccc(Br)cc3)cc2)CC1=O (centres unmarked) [Example 41, 1-(4′-Bromo-biphenyl-4-sulfonyl)-4-(3-butoxy-propyl)-5-oxo-piperazine-2-carboxylic acid] | ++ | +++ |  | ++
 |  |  | CN(C)CCCN1CC(C(=O)O)N(S(=O)(=O)c2ccc(-c3ccc(Br)cc3)cc2)CC1=O (centres unmarked) [Example 43, 1-(4′-Bromo-biphenyl-4-sulfonyl)-4-(3-dimethylamino-propyl)-5-oxo-piperazine-2-carboxylic acid] | ++ | ++ |  | +
95 | 82 | 11 | CCCCCCN1CC(C(=O)O)N(S(=O)(=O)c2ccc(-c3ccc(Br)cc3)cc2)CC1=O (centres unmarked) [Example 45, 1-(4′-Bromo-biphenyl-4-sulfonyl)-4-hexyl-5-oxo-piperazine-2-carboxylic acid] | ++ | ++ |  | ++
5400 | 2460 | 140 | CCCCCCCCCCN1CC(C(=O)O)N(S(=O)(=O)c2ccc(-c3ccc(Br)cc3)cc2)CC1=O (centres unmarked) [Example 47, 1-(4′-Bromo-biphenyl-4-sulfonyl)-4-decyl-5-oxo-piperazine-2-carboxylic acid] | ++ | +++ |  | ++
114 | 1130 | 9 | CCCCN1CC(C(=O)O)N(S(=O)(=O)c2ccc(-c3ccc(Br)cc3)cc2)CC1=O (centres unmarked) [Example 49, 1-(4′-Bromo-biphenyl-4-sulfonyl)-4-butyl-5-oxo-piperazine-2-carboxylic acid] | ++ | ++ |  | ±
29 | 19 | 5 | O=C(O)C1CN(CCCCCCO)C(=O)CN1S(=O)(=O)c1ccc(-c2ccc(Br)cc2)cc1 (centres unmarked) [Example 51, 1-(4′-Bromo-biphenyl-4-sulfonyl)-4-(6-hydroxy-hexyl)-5-oxo-piperazine-2-carboxylic acid] |  |  |  | 
> 10000 | > 10000 | 220 | CCCCCCCCC=CCCCCCCCCN1CC(C(=O)O)N(S(=O)(=O)c2ccc(-c3ccc(Br)cc3)cc2)CC1=O (centres unmarked) [Example 53, 1-(4′-Bromo-biphenyl-4-sulfonyl)-4-octadec-9-enyl-5-oxo-piperazine-2-carboxylic acid] |  |  |  | 
 |  |  | CCCCCCCCN1CC(C(=O)O)N(S(=O)(=O)c2ccc(-n3cccc3)cc2)CC1=O (centres unmarked) [Example 58, 4-Octyl-5-oxo-1-(4-pyrrol-1-yl-benzenesulfonyl)-piperazine-2-carboxylic acid] | ++ | ++ |  | ±

Molecule | IC50 (MMP-1) [nM] | IC50 (MMP-13) [nM] | IC50 (MMP-2) [nM] | Tube Formation ([1]; concentration 5 μM) | Tube Formation ([1]; concentration 50 μM) | Tube Formation ([1]; concentration 100 μM) | Tube Formation ([1]; concentration 0.5 μM)
1-(4-Methoxy-benzenesulfonyl)-4-methyl-5-oxo-piperazine-2-hydroxamate [Example 25] | 82 | 16 | 3 | − | − | + | 
4-Butyl-1-(4-methoxy-benzenesulfonyl)-5-oxo-piperazine-2-hydroxamate [Example 19] | 47 | 14 | 15 | + | + | ++ | 
